Data as given in ChEMBL document CHEMBL6182883, “Discovery of a series of novel 3-sulfonamido benzoic acid derivatives as promising P2Y14R antagonists for acute lung injury” (Eur J Med Chem, 2025).
The source made the active and inactive calls. The calls are words filed in the database; no cut-off is given here.

Columns and labels:
[1] = target: T1, P2Y purinoceptor 14 (Homo sapiens) (UniProt Q15391); test: Antagonist activity at human P2Y14R expressed in HEK293 cells assessed as inhibition of UDPG-induced Ca2+ level at 5 uM by Fluo-4 dye based fluorescence assay relative to control; assay type: functional, cell-based
T1 sequence (whole entry): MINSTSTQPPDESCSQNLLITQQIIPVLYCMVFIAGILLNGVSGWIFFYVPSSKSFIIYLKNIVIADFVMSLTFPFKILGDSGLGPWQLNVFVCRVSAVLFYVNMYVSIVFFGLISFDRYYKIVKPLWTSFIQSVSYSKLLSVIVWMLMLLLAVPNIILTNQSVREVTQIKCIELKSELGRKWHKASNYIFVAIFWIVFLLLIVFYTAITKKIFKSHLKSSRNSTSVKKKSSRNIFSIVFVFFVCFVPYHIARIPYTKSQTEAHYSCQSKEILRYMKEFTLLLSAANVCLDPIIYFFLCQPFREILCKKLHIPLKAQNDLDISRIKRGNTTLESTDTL

P2Y purinoceptor 14 = target: T2, P2Y purinoceptor 14 (Homo sapiens, UniProt Q15391); test: Antagonist activity at human P2Y14R expressed in HEK293 cells assessed as inhibition of UDPG-induced Ca2+ level by Fluo-4 dye based fluorescence assay; assay type: functional, cell-based
T2 sequence (Q15391 whole entry): T1 sequence (whole entry)

Mus musculus [2] = test: (§1) Antiinflammatory activity in LPS-induced C57BL/6 mouse ALI model assessed as reduction in IL-1beta expression in BALF at 2 mg/kg, po administered once daily via gavage for 7 days followed by endotoxin challenge at 1 hr post last dose and subsequent LPS stimulation and measured after 24 hrs by ELISA; assay type: functional, organism-based; details: time 8.0 day
Mus musculus [3] = test: Antiinflammatory activity in LPS-induced C57BL/6 mouse ALI model assessed as reduction in MPO level in BALF at 2 mg/kg, po administered once daily via gavage for 7 days followed by endotoxin challenge at 1 hr post last dose and subsequent LPS stimulation and measured after 24 hrs by ELISA; assay type: functional, organism-based; details: time 8.0 day
Mus musculus [4] = test: Antiinflammatory activity in LPS-induced C57BL/6 mouse ALI model assessed as reduction in TNF-alpha expression in BALF at 2 mg/kg, po administered once daily via gavage for 7 days followed by endotoxin challenge at 1 hr post last dose and subsequent LPS stimulation and measured after 24 hrs by ELISA; assay type: functional, organism-based; details: time 8.0 day
Mus musculus [5] = test: Antiinflammatory activity in LPS-induced C57BL/6 mouse ALI model assessed as reduction in IL-6 expression in BALF at 2 mg/kg, po administered once daily via gavage for 7 days followed by endotoxin challenge at 1 hr post last dose and subsequent LPS stimulation and measured after 24 hrs by ELISA; assay type: functional, organism-based; details: time 8.0 day
Mus musculus [6] = test: as §1, with “neutrophil infiltration” for “IL-1beta expression in BALF”, “H and E staining based histopathological assay” for “ELISA”; assay type: functional, organism-based; details: time 8.0 day
Mus musculus [7] = test: as §1, with “alveolar wall thickening” for “IL-1beta expression in BALF”, “H and E staining based histopathological assay” for “ELISA”; assay type: functional, organism-based; details: time 8.0 day
[8] = Aqueous solubility of the compound in pH 4 PBS buffer measured after 24 hrs by shake flask method; assay type: physicochemical
[9] = Aqueous solubility of the compound in pH 7.4 PBS buffer measured after 24 hrs by shake flask method; assay type: physicochemical

inhibition ([1]; filed as antagonist) [%] | Structure (SMILES) | also measured
85.2 | O=C(O)c1cc(NS(=O)(=O)c2ccc(F)cc2)cc(-c2ccc(C3CCNCC3)cc2)c1 | IC50 (P2Y purinoceptor 14): 49.6 nM
 | C[C@@H]1C[C@H]2[C@@H]3CCC4=CC(=O)C=C[C@]4(C)[C@@]3(F)[C@@H](O)C[C@]2(C)[C@@]1(O)C(=O)CO | Activity (Mus musculus [2]): Active; Activity (Mus musculus [3]): Active; Activity (Mus musculus [4]): Active; Activity (Mus musculus [5]): Active; Activity (Mus musculus [6]): Active; Activity (Mus musculus [7]): Active
92.6 | O=C(O)c1cc(NS(=O)(=O)CCc2ccc(Cl)cc2)cc(-c2ccc(C3CCNCC3)cc2)c1 | IC50 (P2Y purinoceptor 14): 28.6 nM
 | COc1ccccc1S(=O)(=O)Nc1cc(C(=O)O)cc(-c2ccc(C3CCNCC3)cc2)c1 | inhibition [1]: 14.3%
65.1 | O=C(O)c1cc(NS(=O)(=O)c2ccc(-c3ccc([N+](=O)[O-])cc3)cc2)cc(-c2ccc(C3CCNCC3)cc2)c1 | 
76.5 | O=C(O)c1cc(NS(=O)(=O)c2ccc(-c3ccc(C(F)(F)F)cc3)cc2)cc(-c2ccc(C3CCNCC3)cc2)c1 | 
81.5 | O=C(O)c1cc(NS(=O)(=O)c2ccccc2)cc(-c2ccc(C3CCNCC3)cc2)c1 | 
96.7 | O=C(O)c1cc(NS(=O)(=O)CCc2ccc(Br)cc2)cc(-c2ccc(C3CCNCC3)cc2)c1 | IC50 (P2Y purinoceptor 14): 19.6 nM
85.4 | O=C(O)c1cc(NS(=O)(=O)CCc2ccc(F)cc2)cc(-c2ccc(C3CCNCC3)cc2)c1 | IC50 (P2Y purinoceptor 14): 42.6 nM
79.4 | O=C(O)c1cc(NS(=O)(=O)c2ccc(-c3ccc(Cl)cc3)cc2)cc(-c2ccc(C3CCNCC3)cc2)c1 | 
82.8 | O=C(O)c1cc(NS(=O)(=O)Cc2ccc(F)cc2)cc(-c2ccc(C3CCNCC3)cc2)c1 | 
47.8 | COc1cccc(S(=O)(=O)Nc2cc(C(=O)O)cc(-c3ccc(C4CCNCC4)cc3)c2)c1 | 
81 | O=C(O)c1cc(NS(=O)(=O)c2ccc(Br)cc2)cc(-c2ccc(C3CCNCC3)cc2)c1 | 
50.6 | Cc1ccc(S(=O)(=O)Nc2cc(C(=O)O)cc(-c3ccc(C4CCNCC4)cc3)c2)cc1 | 
81.6 | O=C(O)c1cc(NS(=O)(=O)Cc2ccccc2)cc(-c2ccc(C3CCNCC3)cc2)c1 | 
 | O=C(O)c1cc(-c2ccc(C3CCNCC3)cc2)c2ccc(-c3ccc(C(F)(F)F)cc3)cc2c1 [PPTN] | solubility thermodynamic at 24 h [8]: < 10 µg/mL; solubility thermodynamic at 24 h [9]: < 10 µg/mL
43.6 | O=C(O)c1cc(NS(=O)(=O)c2ccc(-c3ccccc3F)cc2)cc(-c2ccc(C3CCNCC3)cc2)c1 | 
 | O=C(O)c1cc(NS(=O)(=O)c2ccc(OC(F)(F)F)cc2)cc(-c2ccc(C3CCNCC3)cc2)c1 | inhibition [1]: 32.1%
70.8 | COc1ccc(S(=O)(=O)Nc2cc(C(=O)O)cc(-c3ccc(C4CCNCC4)cc3)c2)cc1 | 
